Laboratory results as given in patent US20230040182A1, “ARYL HETEROBICYCLIC COMPOUNDS AS Kv1.3 POTASSIUM SHAKER CHANNEL BLOCKERS” (priority 2019, published 2023).
Blank lines part the entries; values can stand above or below the compound they belong to.

Columns and labels:
Kv1.3 potassium channel = target: T1, Kv1.3 potassium channel (Homo sapiens, UniProt P22001); assay: Kv1.3 potassium channel blocker activity, automated whole-cell patch clamp (Patchliner); type: cell-based; details: CHO-K1 cells stably expressing Kv1.3; whole-cell current, Hill fit
T1 construct: expressed in transfected cells
T1 sequence (P22001 whole entry): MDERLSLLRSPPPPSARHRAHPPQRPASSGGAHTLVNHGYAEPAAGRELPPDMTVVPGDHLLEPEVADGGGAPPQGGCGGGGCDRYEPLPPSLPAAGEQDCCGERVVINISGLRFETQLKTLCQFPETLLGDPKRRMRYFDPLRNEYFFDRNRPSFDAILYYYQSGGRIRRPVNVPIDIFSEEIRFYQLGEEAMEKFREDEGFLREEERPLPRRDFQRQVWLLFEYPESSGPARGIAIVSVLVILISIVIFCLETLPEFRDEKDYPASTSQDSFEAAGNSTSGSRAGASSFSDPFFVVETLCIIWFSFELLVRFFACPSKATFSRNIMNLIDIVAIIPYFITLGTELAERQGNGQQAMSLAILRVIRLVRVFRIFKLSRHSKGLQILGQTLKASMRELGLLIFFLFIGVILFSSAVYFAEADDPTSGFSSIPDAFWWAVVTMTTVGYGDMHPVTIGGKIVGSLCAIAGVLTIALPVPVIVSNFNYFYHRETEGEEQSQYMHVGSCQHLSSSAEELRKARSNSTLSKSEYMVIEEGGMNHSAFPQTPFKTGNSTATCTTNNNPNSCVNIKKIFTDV
Description: Example 9. Evaluation of Kv1.3 Potassium Channel Blocker Activities
This assay is used to evaluate the disclosed compounds' activities as Kv1.3 potassium channel blockers.
CHO-K1 cells stably expressing Kv1.3 were grown in DMEM containing 10% heat-inactivated FBS, 1 mM Sodium Pyruvate, 2 mM L-Glutamine and G418 (500 μg/ml). Cells were grown in culture flasks at 37° C. in a […] incubator.
(§1) The cells were bathed in an extracellular solution containing 140 mM NaCl, 4 mM KCl, 2 mM CaCl2, 1 mM MgCl2, 5 mM Glucose, 10 mM HEPES; pH adjusted to 7.4 with NaOH; 295-305 mOsm. The internal solution contained 50 mM KCl, 10 mM NaCl, 60 mM KF, 20 mM EGTA, 10 mM HEPES; pH adjusted to 7.2 with KOH; 285 mOsm. All compounds were dissolved in DMSO at 30 mM. Compound stock solutions were freshly diluted with external solution to concentrations of 30 nM, 100 nM, 300 nM, 1 μM, 3 μM, 10 μM, 30 μM and 100 μM. The highest content of DMSO (0.3%) was present in 100 μM.
The currents were evoked by applying 100 ms depolarizing pulses from −90 mV (holding potential) to +40 mV were applied with 0.1 Hz frequency. Control (compound-free) and compound pulse trains for each compound concentration applied contained 20 pulses. 10-second breaks were used between pulse trains (see Table A below).
Whole-cell current recordings and compound application were enabled by means of an automated patch clamp platform Patchliner (Nanion Technologies GmbH). EPC 10 patch clamp amplifier (HEKA Elektronik Dr. Schulze GmbH) along with Patchmaster software (HEKA Elektronik Dr. Schulze GmbH) was used for data acquisition. Data were sampled at 10 kHz without filtering. Passive leak currents were subtracted online using a P/4 procedure (HEKA Elektronik Dr. Schulze GmbH). Increasing compound concentrations were applied consecutively to the same cell without washouts in between. Total compound incubation time before the next pulse train was not longer than 10 seconds. Peak current inhibition was observed during compound equilibration.
(§2) AUC and peak values were obtained with Patchmaster (HEKA Elektronik Dr. Schulze GmbH). To determine IC50, the last single pulse in the pulse train corresponding to a given compound concentration was used. Obtained AUC and peak values in the presence of compound were normalized to control values in the absence of compound. Using Origin (OridinLab), IC50 was derived from data fit to Hill equation: Icompound/Icontrol=(100−A)/(1+([compound]/IC50)nH)+A, where IC50 value is the concentration at which current inhibition is half-maximal, [compound] is the applied compound concentration, A is the fraction of current that is not blocked and nH is the Hill coefficient.

hERG channel = target: T2, hERG channel (Homo sapiens, UniProt Q12809); assay: hERG electrophysiology, automated whole-cell patch clamp (Patchliner); type: cell-based; details: CHO-K1 cells stably expressing hERG; whole-cell current, Hill fit
T2 construct: expressed in transfected cells
T2 sequence (Q12809 whole entry): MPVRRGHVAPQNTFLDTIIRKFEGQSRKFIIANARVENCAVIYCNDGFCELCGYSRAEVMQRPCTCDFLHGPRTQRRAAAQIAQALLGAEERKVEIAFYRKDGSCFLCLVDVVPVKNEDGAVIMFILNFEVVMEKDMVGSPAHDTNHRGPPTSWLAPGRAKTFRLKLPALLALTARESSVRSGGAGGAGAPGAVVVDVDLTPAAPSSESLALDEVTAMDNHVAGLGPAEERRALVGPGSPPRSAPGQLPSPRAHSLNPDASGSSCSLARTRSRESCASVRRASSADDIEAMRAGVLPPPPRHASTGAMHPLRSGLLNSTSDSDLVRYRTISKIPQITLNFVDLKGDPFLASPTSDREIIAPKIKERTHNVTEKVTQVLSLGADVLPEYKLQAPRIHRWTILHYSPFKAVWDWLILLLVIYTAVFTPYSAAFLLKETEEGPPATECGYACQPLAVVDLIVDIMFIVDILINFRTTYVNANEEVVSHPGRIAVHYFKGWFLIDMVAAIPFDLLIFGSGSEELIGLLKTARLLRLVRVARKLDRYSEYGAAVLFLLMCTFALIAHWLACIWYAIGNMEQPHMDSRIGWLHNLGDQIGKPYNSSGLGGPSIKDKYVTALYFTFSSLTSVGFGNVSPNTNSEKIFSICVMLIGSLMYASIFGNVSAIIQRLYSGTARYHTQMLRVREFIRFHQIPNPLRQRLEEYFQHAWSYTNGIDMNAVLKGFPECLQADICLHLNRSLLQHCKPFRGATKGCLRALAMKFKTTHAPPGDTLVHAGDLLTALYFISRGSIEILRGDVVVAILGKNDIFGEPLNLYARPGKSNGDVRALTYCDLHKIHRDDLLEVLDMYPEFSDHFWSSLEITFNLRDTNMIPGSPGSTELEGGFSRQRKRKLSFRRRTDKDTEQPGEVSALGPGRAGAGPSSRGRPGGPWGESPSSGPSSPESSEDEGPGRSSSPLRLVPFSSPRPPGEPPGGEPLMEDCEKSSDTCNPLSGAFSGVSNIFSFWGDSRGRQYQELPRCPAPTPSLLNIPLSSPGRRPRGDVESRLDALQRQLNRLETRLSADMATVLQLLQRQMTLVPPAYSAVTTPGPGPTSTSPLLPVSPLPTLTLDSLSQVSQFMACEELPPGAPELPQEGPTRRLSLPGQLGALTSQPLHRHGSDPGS
Description: Example 10. Evaluation of hERG Activities
This assay is used to evaluate the disclosed compounds' inhibition activities against the hERG channel.
CHO-K1 cells stably expressing hERG were grown in Ham's F-12 Medium with Glutamine containing 10% heat-inactivated FBS, 1% Penicillin/Streptomycin, Hygromycin (100 μg/ml) and G418 (100 μg/ml). Cells were grown in culture flasks at 37° C. in a 5% CO2-humidified incubator.
as §1, with “CaCl2),” for “CaCl2,”
The voltage protocol (see Table B) was designed to simulate voltage changes during a cardiac action potential with a 300 ms depolarization to +20 mV (analogous to the plateau phase of the cardiac action potential), a repolarization for 300 ms to −50 mV (inducing a tail current) and a final step to the holding potential of −80 mV. The pulse frequency was 0.3 Hz. Control (compound-free) and compound pulse trains for each compound concentration applied contained 70 pulses.
Whole-cell current recordings and compound application were enabled by means of an automated patch clamp platform Patchliner (Nanion). EPC 10 patch clamp amplifier (HEKA) along with Patchmaster software (HEKA Elektronik Dr. Schulze GmbH) was used for data acquisition. Data were sampled at 10 kHz without filtering. Increasing compound concentrations were applied consecutively to the same cell without washouts in between.
as §2, with “PEAK” for “peak”, “IC50” for “IC50,”, “IC50” for “IC50 value”

SMILES: O=C1NC(=O)N2CC[C@H](c3c(O)ccc(Cl)c3Cl)C[C@@H]12 (single isomer, unassigned; diastereoisomer 1) [Compound 9, 7-(2,3-dichloro-6-hydroxyphenyl)tetrahydro-imidazo[1,5-a]pyridine-1,3(2H,5H)-dione diastereoisomer 1]
IC50 (Kv1.3 potassium channel): < 1 µM
IC50 (hERG channel): > 30 µM

SMILES: O=C1[C@@H]2C[C@H](c3c(O)ccc(Cl)c3Cl)CCN2C(=O)CN1C1CC(O)C1 (single isomer, unassigned; isomer 1) [Compound 14, 8-(2,3-dichloro-6-hydroxyphenyl)-2-[3-hydroxycyclobutyl]-hexahydropyrido[1,2-a]pyrazine-1,4-dione isomer 1]
IC50 (Kv1.3 potassium channel): < 1 µM
IC50 (hERG channel): > 30 µM

SMILES: O=C1[C@@H]2C[C@H](c3c(O)ccc(Cl)c3Cl)CCN2C(=O)CN1C1CNC1 [Compound 1, (8R,9aS)-2-(azetidin-3-yl)-8-(2,3-dichloro-6-hydroxyphenyl)-octahydro-1H-pyrido[1,2-a]pyrazine-1,4-dione]
IC50 (Kv1.3 potassium channel): < 1 µM
IC50 (hERG channel): > 30 µM

SMILES: O=C1N[C@H](CO)C(=O)N2CC[C@@H](c3c(O)ccc(Cl)c3Cl)C[C@@H]12 [Compound 2, (3R,8R,9aS)-8-(2,3-dichloro-6-hydroxyphenyl)-3-(hydroxymethyl)-hexahydro-2H-pyrido[1,2-a]pyrazine-1,4-dione]
IC50 (Kv1.3 potassium channel): < 1 µM
IC50 (hERG channel): > 30 µM

SMILES: C[C@H](O)[C@H]1NC(=O)[C@@H]2C[C@H](c3c(O)ccc(Cl)c3Cl)CCN2C1=O [Compound 3, (3R,8R,9aS)-8-(2,3-dichloro-6-hydroxyphenyl)-3-[(1S)-1-hydroxyethyl]-hexahydro-2H-pyrido[1,2-a]pyrazine-1,4-dione]
IC50 (Kv1.3 potassium channel): < 1 µM
IC50 (hERG channel): > 30 µM

SMILES: CN1C(=O)[C@@H]2C[C@H](c3c(O)ccc(Cl)c3Cl)CCN2C(=O)[C@H]1CO [Compound 6, (3R,8R,9aS)-8-(2,3-dichloro-6-hydroxyphenyl)-3-(hydroxymethyl)-2-methyl-hexahydropyrido[1,2-a]pyrazine-1,4-dione]
IC50 (Kv1.3 potassium channel): < 1 µM
IC50 (hERG channel): > 30 µM

SMILES: O=C1NCCC(=O)N2CCC(c3c(O)ccc(Cl)c3Cl)CC12 (centres unmarked) [Compound 8, 9-(2,3-dichloro-6-hydroxyphenyl)-decahydropyrido[1,2-a][1,4]diazepine-1,5-dione]
IC50 (Kv1.3 potassium channel): < 1 µM
IC50 (hERG channel): > 30 µM

SMILES: O=C1[C@H]2[C@@H](O)CCN2C(=O)[C@@H]2C[C@H](c3c(O)ccc(Cl)c3Cl)CCN12 [Compound 12, (1S,5aS,7R,11aR)-7-(2,3-dichloro-6-hydroxyphenyl)-1-hydroxyhexahydro-1H-pyrido[1,2-a]pyrrolo[1,2-d]pyrazine-5,11(5aH,11aH)-dione]
IC50 (Kv1.3 potassium channel): < 1 µM
IC50 (hERG channel): > 30 µM

SMILES: C[C@@H](O)[C@H]1NC(=O)[C@@H]2C[C@H](c3c(O)ccc(Cl)c3Cl)CCN2C1=O [Compound 24, (3R,8R,9aS)-8-(2,3-dichloro-6-hydroxyphenyl)-3-[(1R)-1-hydroxyethyl]-hexahydro-2H-pyrido[1,2-a]pyrazine-1,4-dione]
IC50 (Kv1.3 potassium channel): < 1 µM
IC50 (hERG channel): > 30 µM

SMILES: O=C1[C@@H]2C[C@H](c3c(O)ccc(Cl)c3Cl)CCN2C(=O)CN1CCO [Compound 26, (8R,9aS)-8-(2,3-dichloro-6-hydroxyphenyl)-2-(2-hydroxyethyl)-hexahydropyrido[1,2-a]pyrazine-1,4-dione]
IC50 (Kv1.3 potassium channel): < 1 µM
IC50 (hERG channel): > 30 µM

SMILES: CC(C)[C@H](O)[C@H]1NC(=O)[C@@H]2C[C@H](c3c(O)ccc(Cl)c3Cl)CCN2C1=O [Compound 30, (3R,8R.9aS)-8-(2,3-dichloro-6-hydroxyphenyl)-3-[(1S)-1-hydroxy-2-methylpropyl]-hexahydro-2H-pyrido[1,2-a]pyrazine-1,4-dione]
IC50 (Kv1.3 potassium channel): < 1 µM
IC50 (hERG channel): > 30 µM

Now from value to compound, other results behind:

IC50 (Kv1.3 potassium channel): < 1 µM
SMILES: COC[C@H]1NC(=O)[C@@H]2C[C@H](c3c(O)ccc(Cl)c3Cl)CCN2C1=O (relative stereo) [Compound 55, (8R,9aS)-rel-8-(2,3-dichloro-6-hydroxyphenyl)-3-((3R)-methoxymethyl)-hexahydro-2H-pyrido[1,2-a]pyrazine-1,4-dione]
IC50 (hERG channel): > 30 µM

IC50 (Kv1.3 potassium channel): < 1 µM
SMILES: O=C1[C@@H]2C[C@H](c3c(O)ccc(Cl)c3Cl)CCN2C(=O)CN1C1CC(O)C1 (single isomer, unassigned; isomer 2) [Compound 44, 8-(2,3-dichloro-6-hydroxyphenyl)-2-[3-hydroxycyclobutyl]-hexahydropyrido[1,2-a]pyrazine-1,4-dione isomer 2]
IC50 (hERG channel): > 30 µM

IC50 (Kv1.3 potassium channel): < 1 µM
SMILES: O=C1[C@@H]2C[C@H](c3c(O)ccc(Cl)c3Cl)CCN2C(=O)[C@H]2C[C@H](O)CN12 (single isomer, unassigned; isomer 2) [Compound 65, 7-(2,3-dichloro-6-hydroxyphenyl)-2-hydroxyhexahydro-1H-pyrido[1,2-a]pyrrolo[1,2-d]pyrazine-5,11(5aH,11aH)-dione isomer 2]
IC50 (hERG channel): < 30 µM

IC50 (Kv1.3 potassium channel): < 1 µM
SMILES: O=C1[C@@H]2C[C@H](O)CN2C(=O)[C@@H]2C[C@H](c3c(O)ccc(Cl)c3Cl)CCN12 (single isomer, unassigned; isomer 4) [Compound 35, 7-(2,3-dichloro-6-hydroxyphenyl)-2-hydroxyhexahydro-1H-pyrido[1,2-a]pyrrolo[1,2-d]pyrazine-5,11(5aH,11aH)-dione isomer 4]
IC50 (hERG channel): < 30 µM

IC50 (Kv1.3 potassium channel): < 1 µM
SMILES: O=C1[C@@H]2C[C@H](c3c(O)ccc(Cl)c3Cl)CCN2C(=O)CN1C(CO)CO [Compound 32, (8R,9aS)-8-(2,3-dichloro-6-hydroxyphenyl)-2-(1,3-dihydroxypropan-2-yl)hexahydro-4H-pyrido[1,2-a]pyrazine-1,4(6H)-dione]
IC50 (hERG channel): > 30 µM

IC50 (Kv1.3 potassium channel): < 1 µM
SMILES: CN1CC(=O)N2CCC(c3c(O)ccc(Cl)c3Cl)CC2C1=O (centres unmarked) [Compound 36, 8-(2,3-dichloro-6-hydroxyphenyl)-2-methyl-octahydro-1H-pyrido[1,2-a]pyrazine-1,4-dione]
IC50 (hERG channel): > 30 µM

IC50 (Kv1.3 potassium channel): < 1 µM
SMILES: O=C1NCC(=O)N2CC[C@@H](c3c(O)ccc(Cl)c3Cl)C[C@@H]12 [Compound 41, (8R,9aS)-8-(2,3-dichloro-6-hydroxyphenyl)hexahydro-4H-pyrido[1,2-a]pyrazine-1,4(6H)-dione]
IC50 (hERG channel): > 30 µM

IC50 (Kv1.3 potassium channel): < 1 µM
SMILES: O=C1[C@@H]2C[C@H](c3cc(Cl)c(Cl)cc3O)CCN2C(=O)CN1C1CNC1 [Compound 50, (8R,9aS)-2-(azetidin-3-yl)-8-(4,5-dichloro-2-hydroxyphenyl)hexahydro-4H-pyrido[1,2-a]pyrazine-1,4(6H)-dione]
IC50 (hERG channel): > 30 µM
